Reference: patent publication US8420693B2, “Dipyrrole compounds, compositions, and methods for treating cancer or viral diseases” (Gemin X Pharmaceuticals Canada Inc., priority 2004, dated 2013)
Counter-ions that a name gives are not always drawn.

How the values were obtained:
[1] = test system: C33A human cervical cancer cells; experiment: Growth of C33A cervical tumors in CB17 SCID/SCID mice; format: in vivo; details: for T/C value: day 42
From the text: (§1) As used herein, the term “T/C value” refers to the value obtained when: (a) the change from baseline in average tumor volume of treated mice is divided by the change from baseline in the average tumor volume of negative control mice; and (b) the numerical value obtained in step (a) is multiplied by 100.
The resultant mice are a model for a human having cervical cancer.
The C33A human cervical cancer cells were maintained in RPMI (Hyclone, Utah, USA) supplemented with 10% inactivated fetal bovine serum (Bio-Whittaker, MD, USA) and 1% penicillin-streptomycin-L-Glutamine (Gibco, N.Y., USA), under 5% CO2 at 37° C., and passaged twice a week. The cells were grown at a confluency lower than 70% and than collected with Trypsin (Bio-Whittaker, MD, USA). The cells were then centrifuged and washed twice using phosphate buffered saline solution (PBS) and resuspended in PBS at 2×10^6 cells per 100 μl. Viability was examined by staining with trypan blue (Gibco, N.Y., USA) and only flasks with cell viability greater than 95% were used for in vivo studies.
C33A cells were injected subcutaneously into the flank of female CB17 SCID/SCID mice. Each mouse was inoculated with a suspension of 2×10^6 tumors cells per 100 μl on day zero. There were three treatment groups of ten mice each: (a) a negative control group, (b) a group treated with Compound 22 MS and (c) a group treated with Compound 37 MS.
Treatments started on day twenty eight after C33A cells transplantation. […] The negative control group was treated with vehicle alone. The injection volume for Compound treated groups and the negative control group was 100 μl.
Observation continued for 51 days after initial tumor implantation.

[2] = test system: human prostatic adenocarcinoma cancer PC3 cells; experiment: Growth of PC3 prostate tumors in SCID mice; format: in vivo
From the text: as §1
The resultant mice are a model for a human having prostatic cancer.
The human prostatic adenocarcinoma cancer PC3 cells were purchased from the American Type Culture Collection (ATCC). These cells were confirmed to be free of mycoplasma infection. Cells were maintained in the Roswell Park Memorial Institute (RPMI), supplemented with 10% inactivated fetal bovine serum and 1% penicillin-streptomycin-L-Glutamine, under 5% carbon dioxide (CO2) at 37° C. For prostatic-tumor induction, cells were grown lower than 70% confluence in complete medium and then collected with trypsin (Bio Whittaker, Rockland, Me., USA). Cells were then centrifuged and washed 2 times in phosphate buffer solution (PBS) and resuspended in PBS at 1.5×10^6 cells/0.1 mL. PC3 cells were then transplanted subcutaneously into the right flank of SCID mice (Charles River Laboratories, Wilmington, Mass., USA), as a suspension of tumor cells (1.5×10^6 cells in 100 μL PBS), under a laminar airflow hood. Eleven (11) days later, the size of each tumor was measured. […] Relative tumor size and volume was calculated as follows: length (cm)×[width (cm)]^2/2. There were four treatment groups of ten mice each: (a) a negative control group, (b) a positive control group and (c) a group treated with 36.25 μMoles/Kg of Compound 17 Mesylate Salt (d) a group treated with 72.5 μMoles/Kg of Compound 17 Mesylate Salt.
Treatments started on day eleven after PC3 cells transplantation. […] The negative control group was treated with vehicle alone.
Observation continued for 32 days after initial tumor implantation.

[3] = test system: H1299 human non-small cell lung cancer-cells; experiment: Cancer cell viability by cellular ATP levels (ViaLight), H1299; format: cell-based; details: NCI-H1299, 72 h, 3 days of incubation, ATP levels relative to untreated control
Protocol: (§2) Selected cell lines included C33A cervical carcinoma cells and H1299 human non-small cell lung cancer-cells (American Type Culture Collection, Manassas, Va. USA), which were cultured in the media recommended by the American Type Culture Collection. The cells lines were plated in 96-well microtiter plates (PerkinElmer Life Sciences Inc, Boston, Mass., USA) at a confluency that allowed them to reach confluence after 4 days of growth. One day after plating, the cells were treated with various concentrations of Compounds. Stock solutions of the Compounds were prepared in dimethyl sulfoxide (Sigma-Aldrich Inc., St. Louis, Mo., USA), diluted in the recommended media and then added to the cells. The total dimethyl sulfoxide on the cells was 0.1%. After 3 days of incubation the ATP levels in the cells were quantified using a luminescent ViaLight detection system (Bio-Whittaker, MD, USA). The results were plotted relative to untreated control cells, which were set at a value of 100. The IC50s were determined using a best-fit sigmoidal dose response curve with variable slope.

[4] = test system: C33A cervical carcinoma cells; experiment: Cancer cell viability by cellular ATP levels (ViaLight), C33A; format: cell-based; details: Homo sapiens, C-33-A, 72 h, 3 days of incubation, ATP levels relative to untreated control
Protocol: as §2

[5] = 2.6 mg/kg iv once a day for five days
[6] = 10 mg/kg iv once a day for five days

IC50 [3] [µM] | IC50 [4] [µM] | Structure (SMILES) | also measured
 |  | COC1=CC(c2cnn(Cc3ccccc3)c2)=NC1=Cc1[nH]c(C)cc1C [Compound 37 MS, 1-benzyl-4-(4-methoxy-5-((3,5-dimethyl-1H-pyrrol-2-yl)methylene)-5H-pyrrol-2-yl)-1H-pyrazole] | reduction in tumor growth compared to mice treated with vehicle only [1, 5]: statistically significant (p<0.0001) reduction in tumor growth; T/C value [1, 5]: 31%
 |  | COC1=CC(c2ccc(N(C)C)cc2)=NC1=Cc1[nH]c(C)cc1C [Compound 22 MS, 4-(4-methoxy-5-((3,5-dimethyl-1H-pyrrol-2-yl)methylene)-5H-pyrrol-2-yl)-N,N-dimethylbenzenamine] | reduction in tumor growth compared to mice treated with vehicle only [1, 6]: statistically significant (p=0.0024) reduction in tumor growth; T/C value [1, 6]: 34%
 |  | COC1=CC(c2ccc(OC)c(OC)c2)=NC1=Cc1[nH]c(C)cc1C [Compound 17 Mesylate Salt, 2-((3-methoxy-5-(3,4-dimethoxyphenyl)-2H-pyrrol-2-ylidene)methyl)-3,5-dimethyl-1H-pyrrole] | reduction in tumor growth compared to mice treated with vehicle only ([2]; 36.25 μMoles/Kg iv once a day for five days): did not result in a statistical significant reduction in tumor growth; T/C value ([2]; 36.25 μMoles/Kg iv once a day for five days, day 29): 53%; T/C value ([2]; 36.25 μMoles/Kg iv once a day for five days, day 32): 52%; T/C value ([2]; 72.5 μMoles/Kg iv once a day for five days, day 29): 18%; T/C value ([2]; 72.5 μMoles/Kg iv once a day for five days, day 32): 22%; reduction in tumor growth compared to mice treated with vehicle only ([2]; 72.5 μMoles/Kg iv once a day for five days, days 29 and 32): statistically significant (p<0.01) reduction in tumor growth
6.64 | 1.15 | COC1=CC(c2ccc(Br)cc2)=NC1=Cc1[nH]c(C)cc1C [Compound 29, 2-((5-(4-bromophenyl)-3-methoxy-2H-pyrrol-2-ylidene)methyl)-3,5-dimethyl-1H-pyrrole] | 
1.65 | 0.181 | COC1=CC(c2cnn(Cc3ccccc3)c2)=NC1=Cc1[nH]c(C)cc1C [Compound 37, 1-benzyl-4-(4-methoxy-5-((3,5-dimethyl-1H-pyrrol-2-yl)methylene)-5H-pyrrol-2-yl)-1H-pyrazole] | 
6.5 | 0.7 | COC1=CC(c2ccoc2)=NC1=Cc1[nH]c(C)cc1C [Compound 14, 2-((5-(furan-3-yl)-3-methoxy-2H-pyrrol-2-ylidene)methyl)-3,5-dimethyl-1H-pyrrole] | 
0.709 | 0.131 | COc1ccc(C2=NC(=Cc3[nH]c(C)cc3C)C(OCc3ccccc3)=C2)cc1OC [Compound 43, 3-(benzyloxy)-5-(3,4-dimethoxyphenyl)-2-((3,5-dimethyl-1H-pyrrol-2-yl)methylene)-2H-pyrrole] | 
20 | 20 | COC1=CC(c2cc(OC)ccc2OC)=NC1=Cc1[nH]c(C)cc1C [Compound 19, 2-((3-methoxy-5-(2,5-dimethoxyphenyl)-2H-pyrrol-2-ylidene)methyl)-3,5-dimethyl-1H-pyrrole] | 
0.668 | 0.212 | COC1=CC(c2ccc3c(c2)OCC3)=NC1=Cc1[nH]c(C)cc1C [Compound 31, 2-((5-(2,3-dihydrobenzofuran-6-yl)-3-methoxy-2H-pyrrol-2-ylidene)methyl)-3,5-dimethyl-1H-pyrrole] | 
21.6 | 10.6 | COC1=CC(c2ccc(C=O)cc2)=NC1=Cc1[nH]c(C)cc1C [Compound 9, 4-(4-methoxy-5-((3,5-dimethyl-1H-pyrrol-2-yl)methylene)-5H-pyrrol-2-yl)benzaldehyde] | 
6.26 | 7 | COC1=CC(c2ccc3cc(OC)ccc3c2)=NC1=Cc1[nH]c(C)cc1C [Compound 27, 2-((3-methoxy-5-(2-methoxynaphthalen-6-yl)-2H-pyrrol-2-ylidene)methyl)-3,5-dimethyl-1H-pyrrole] | 
10 | 2.2 | COC1=CC(c2ccc(F)cc2)=NC1=Cc1[nH]c(C)cc1C [Compound 5, 5-(4-fluorophenyl)-3-methoxy-2-((3,5-dimethyl-1H-pyrrol-2-yl)methylene)-2H-pyrrole] | 
5.69 | 1.2 | COC1=CC(c2cccnc2OC)=NC1=Cc1[nH]c(C)cc1C [Compound 30, 2-methoxy-3-(4-methoxy-5-((3,5-dimethyl-1H-pyrrol-2-yl)methylene)-5H-pyrrol-2-yl)pyridine] | 
